Reference: PubChem BioAssay (NCI)
Where “and” joins values, the source holds several entries; their conditions need not be identical. Equal entries are not always repeated.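 Growth conditions: 96-well plates. Treatment: test compound, 48 hours, 5 concentrations. Analysis: linear interpolation between bracketing concentrations; unreached endpoints set to highest concentration. GI50 marks 50% less growth. TGI marks complete inhibition of growth.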

How the values were obtained:
Assay in all cases: NCI-60 cell line screen, 48 h
[1] = system: SK-OV-3 ovarian
[2] = system: SK-MEL-5 melanoma
[3] = system: HT29 colon
[4] = system: MDA-MB-231 breast
[5] = system: LOX IMVI melanoma
[6] = system: HL-60(TB) leukemia
[7] = system: OVCAR-4 ovarian
[8] = system: NCI-H460 lung
[9] = system: HOP-62 NSCLC
[10] = system: SR leukemia
[11] = system: KM12 colon
[12] = system: M14 melanoma
[13] = system: TK-10 renal
[14] = system: HCT-116 colon
[15] = system: HS 578T breast
[16] = system: HCC-2998 colon
[17] = system: IGROV1 ovarian
[18] = system: COLO 205 colon
[19] = system: SNB-75 CNS
[20] = system: NCI-H23 lung
[21] = system: SF-295 CNS
[22] = system: OVCAR-3 ovarian
[23] = system: BT-549 breast
[24] = system: A498 renal
[25] = system: MDA-N
[26] = system: MCF7 breast
[27] = system: DU-145 prostate
[28] = system: SN12C renal
[29] = system: CAKI-1 renal
[30] = system: SK-MEL-28 melanoma
[31] = system: U251 CNS
[32] = system: SNB-19 CNS
[33] = system: OVCAR-8 ovarian
[34] = system: MOLT-4 leukemia
[35] = system: MALME-3M melanoma
[36] = system: T-47D breast
[37] = system: 786-0 renal
[38] = system: HCT-15 colon
[39] = system: SW-620 colon
[40] = system: K-562 leukemia
[41] = system: NCI-H522 lung
[42] = system: CCRF-CEM leukemia
[43] = system: RXF 393 renal
[44] = system: EKVX NSCLC
[45] = system: NCI-H226 lung
[46] = system: OVCAR-5 ovarian
[47] = system: UACC-257 melanoma
[48] = system: MDA-MB-435
[49] = system: UO-31 renal
[50] = system: UACC-62 melanoma
[51] = system: SK-MEL-2 melanoma
[52] = system: NCI/ADR-RES ovarian
[53] = system: SF-539 CNS
[54] = system: SF-268 CNS
[55] = system: PC-3 prostate
[56] = system: HOP-92 NSCLC
[57] = system: A549 NSCLC
[58] = system: ACHN renal
[59] = system: RPMI-8226 leukemia

CSc1n[nH]c2n[nH]c(C)c12
TGI [1]: > 100 µM
TGI [2]: > 100 µM
TGI [3]: > 100 µM
TGI [4]: > 100 µM
TGI [5]: > 100 µM
TGI [6]: > 100 µM
TGI [7]: > 100 µM
TGI [8]: > 100 µM
TGI [9]: > 100 µM
TGI [10]: > 100 µM
TGI [11]: > 100 µM
TGI [12]: > 100 µM
TGI [13]: > 100 µM
TGI [14]: > 100 µM
TGI [15]: > 100 µM
TGI [16]: > 100 µM
TGI [17]: > 100 µM
TGI [18]: > 100 µM
TGI [19]: > 100 µM
TGI [20]: > 100 µM
TGI [21]: > 100 µM
TGI [22]: > 100 µM
TGI [23]: > 100 µM
TGI [24]: > 100 µM
TGI [25]: > 100 µM
TGI [26]: > 100 µM
TGI [27]: > 100 µM
TGI [28]: > 100 µM
TGI [29]: > 100 µM
TGI [30]: > 100 µM
TGI [31]: > 100 µM
TGI [32]: > 100 µM
TGI [33]: > 100 µM
TGI [34]: > 100 µM
TGI [35]: > 100 µM
TGI [36]: > 100 µM
TGI [37]: > 100 µM
TGI [38]: > 100 µM
TGI [39]: > 100 µM
TGI [40]: > 100 µM
TGI [41]: > 100 µM
TGI [42]: > 100 µM
TGI [43]: > 100 µM
TGI [44]: > 100 µM
TGI [45]: > 100 µM
TGI [46]: > 100 µM
TGI [47]: > 100 µM
TGI [48]: > 100 µM
TGI [49]: > 100 µM
TGI [50]: > 100 µM
TGI [51]: > 100 µM
TGI [52]: > 100 µM
TGI [53]: > 100 µM
TGI [54]: > 100 µM
TGI [55]: > 100 µM
TGI [56]: > 100 µM
TGI [57]: > 100 µM
TGI [58]: > 100 µM
TGI [59]: > 100 µM

N#Cc1c(-c2ccccc2)c(C#N)c(=S)n(C2OCC(O)C(O)C2O)c1N (stereo not drawn)
TGI [1]: > 100 µM
TGI [2]: > 100 µM
TGI [3]: > 100 µM
TGI [4]: > 100 µM
TGI [5]: > 100 µM
TGI [6]: > 100 µM
TGI [8]: > 100 µM
TGI [9]: > 100 µM
TGI [10]: > 100 µM
TGI [11]: > 100 µM
TGI [12]: > 100 µM
TGI [13]: > 100 µM
TGI [15]: > 100 µM
TGI [16]: > 100 µM
TGI [17]: > 100 µM
TGI [19]: > 100 µM
TGI [20]: > 100 µM
TGI [21]: > 100 µM
TGI [22]: > 100 µM
TGI [23]: > 100 µM
TGI [24]: > 100 µM
TGI [25]: > 100 µM
TGI [26]: > 100 µM
TGI [27]: > 100 µM
TGI [28]: > 100 µM
TGI [29]: > 100 µM
TGI [30]: > 100 µM
TGI [32]: > 100 µM
TGI [33]: > 100 µM
TGI [34]: > 100 µM
TGI [35]: > 100 µM
TGI [36]: > 100 µM
TGI [37]: > 100 µM
TGI [38]: > 100 µM
TGI [39]: > 100 µM
TGI [40]: > 100 µM
TGI [41]: > 100 µM
TGI [42]: > 100 µM
GI50 [43]: 26.7 µM and > 100 µM
TGI [43]: > 100 µM
TGI [45]: > 100 µM
TGI [46]: > 100 µM
TGI [47]: > 100 µM
TGI [48]: > 100 µM
TGI [49]: > 100 µM
TGI [50]: > 100 µM
TGI [51]: > 100 µM
TGI [52]: > 100 µM
TGI [53]: > 100 µM
TGI [54]: > 100 µM
TGI [55]: > 100 µM
TGI [57]: > 100 µM
TGI [58]: > 100 µM
TGI [59]: > 100 µM
